The source of these data is patent publication US10478464B2, “Compositions and methods of use” (priority 2009, dated 2019).

Data set [1] has as its system non-small cell lung cancer cell lines (HOP-92, NCI-H460). As to the kind of experiment: NCI 60 human tumor cell line screen (MTT), non-small cell lung cancer lines. To be noted: 10 μM.
Protocol: The screening is a microplate cytotoxicity assays based on a simple colorimetric (MTT) assay which relies on the metabolic reduction of a tetrazolium dye in viable cells to a colored formazan product. A modified protocol was used for the screening of the compound and measures the inhibition of growth of various tumor cell lines. The 8-HHA tested in this assay was at the concentration of 10 μM.
Data set [2] concerns SNU449 liver cancer cell line. Nature of the data set: Cell survival, colorimetric MTT assay, SNU449. Conditions: 100 μM, 72 hours. In kind it is cell-based. How it is done:
(§1) 2) Against the liver cancer cell lines: The effect of the racemic mixture of 8-HHA and that of the individual enantiomers, namely S and R enantiomers, were examined on survival of PLC/PRF/5 (also referred to as “PLC-5” or “PLC5”), Hep3B and SNU449 (also referred to as “SNU”) liver cancer cell lines. The cell viability was examined in the exponential growth phase with 100 μM of 8-HHA for 72 hours using colorimetric MTT assay. In separate assays, PLC-5 cells were treated with different concentrations of S-enantiomer of 8-HHA ranging from 20-100 μM for 72 hours.

The test system of data set [3] is PLC/PRF/5 liver cancer cell line. Nature of the data set: Cell survival, colorimetric MTT assay, PLC/PRF/5. In kind it is cell-based. Conditions: 100 μM, 72 hours. On the procedure: as §1
The subject of data set [4] is HOP-92 lung cancer cell lines. As to the kind of experiment: Cell survival, colorimetric MTT assay, HOP-92. In kind it is cell-based, human. Conditions: 100 μM, 72 hours. How it is done: 1) Against the lung cancer cell lines: The effect of the racemic mixture of 8-HHA and that of the individual enantiomers, namely S and R enantiomers, were examined on the survival of HOP-92 lung cancer cell lines. The cell viability was examined in the exponential growth phase with 100 μM of 8-HHA for 72 hours using colorimetric MTT assay. In separate assays, HOP-92 cells were treated with different concentrations of the S-enantiomer of 8-HHA ranging from 20-100 μM for 72 hours.
(Tetrazolium dyes change colour on reduction, which living cells bring about.)

The test system of data set [5] is Hep3B liver cancer cell line. As to the kind of experiment: Cell survival, colorimetric MTT assay, Hep3B. Format: cell-based. To be noted: 100 μM, 72 hours. On the procedure: as §1
Data set [6] can be described thus: Maximal tolerated dose (MTD), single IV bolus. Format: in vivo. On the procedure: The purpose of this study was to determine the maximum tolerated dose of 8-HHA following intravenous (IV) administration in ICR mice. A racemic mixture of 8-HHA, placebo, and vehicle were administered to 20 ICR female mice with weight of 25-30 grams, respectively. The 8-HHA was formulated in nanolipid at concentration of 0, 10, 20 and 40 mg/ml. There were 4 animals per group and they were injected with 0, 10, 20 and 40 mg/kg dose of 8-HHA Mice were given a single bolus dose via the tail vein according to group assignment. One week after dosing mice were sacrificed. Daily clinical observations were performed 15 minutes and 1 hour post dose. The mice were observed daily for any adverse effects until necropsy on study day 8. Body weights were recorded for all the mice prior to test substance administration, and every other day throughout the test period. This entire study was performed at Toxikon Corporation, Bedford, Mass.

Data set [7] has as its system leukemia cell lines (CCRF-CEM, K-562, SR, MOLT-4, RPMI-8226, HL-60(TB)). As to the kind of experiment: NCI 60 human tumor cell line screen (MTT), leukemia lines. Format: cell-based. Conditions: 10 μM.
The nature of data set [8]: Water solubility (statement). Format: physicochemical.
In data set [9] the test system is PLC5 cells a Hepatocellular Carcinoma cell line. As to the kind of experiment: Liver xenograft mouse model (PLC5). Format: in vivo, BALB/c nu/nu mice. The source says:
The purpose of this study was to determine anti tumor efficacy of 8-HHA in liver cancer using PLC5 cells a Hepatocellular Carcinoma cell line. The tumor growth and animal survival were considered as primary end point.
Animals and care: Thirty BABL/c nude, non-pregnant and nulliparous female mice that are 5-6 weeks old and weighing 16-20 gms were used in this study. BALB/c nu/nu mice were used because they have been historically used in xenograft studies to test anti-tumor efficacy of drug candidates. Mice were acclimatized for minimum 5 days, under same conditions as for the actual test. Mice were housed at room temperature 68±5° F. with room Relative Humidity of 30-70%, air Exchanges per Hour of a minimum of 10 changes per hour, lights exposure of 12-hour light/dark cycle, full spectrum fluorescent lights. The mice were housed in groups in ventilated micro-isolator cages made up of polycarbonate. The mice were using autoclaved laboratory grade bedding and were provided ad libitum with irradiated pellets and autoclaved water. There were no known contaminants present in the feed, water, or bedding expected to interfere with the test data. The laboratory and animal rooms were maintained as limited-access facilities.
Route of injection and dose: 8-HHA was administered through intraperitoneal (IP) injection. […] For this study, 2 doses-10 mg/kg and 100 mg/kg were used.
Tumor Induction: The cell line PLC5 were cultured according to recommended specifications at Vanas Oncology, in which cells were grown and maintained in RPMI medium containing 10% fetal bovine serum, 2 mM L-Glutamine, 100 units/ml of Streptomycin and 100 units/ml of Penicilin. Cells were trypizinized and counted using the Trypan-blue viability test using a hemocytometer. Cell counts in quadrants of the hemocytometer were converted to a cells/mL value, which will enable isolation of the appropriate number of cells per mouse. Each mouse was inoculated subcutaneously in the right flank region with 0.2 mL of a 50% RPMI/50% Matrigel™ mixture containing a suspension of tumor cells (5×10^6 cells/mouse). Tumors were observed twice weekly until well established. Tumor volume was calculated using the formula: Tumor weight (mg)=(a×b^2/2) where ‘b’ is the smallest diameter and ‘a’ is the largest diameter in millimeters.
Allocation of Animals: Once the established tumors reach a mean calculated volume of approximately 50-100 mg, the mice were randomized, using appropriate software, into treatment groups in order to reduce the variability of tumor sizes per group.
Pre Dose Procedure: Acclimated animals were weighed and observed for clinical signs of toxicity prior to dosing on Day 1.
The first day of dosing is Day 1. On Day 1,8-HHA, and vehicle injections were administered according to the study design in Table 7 below.
Post Dose Procedure: Following treatment, tumor and mouse body weight measurements were recorded twice weekly and gross observation was made at least once daily. Mice with tumors that are not palpable was considered complete regressions. Percentage of mice mortality and time of death will be recorded for every group in the study. Animals may be defined as moribund and sacrificed if one or more of the following criteria are met: • Loss of body weight of 20% or greater in a 1 week period. • Mice that inhibit normal physiological function such as eating, drinking, mobility, and ability to urinate and/or defecate. • Tumors that exceed a maximum size of 2000 mg as measured by calipers. • Ulcerated tumors, or tumors that bleed or produce exudates. • Prolonged, excessive diarrhea leading to excessive weight loss (>20%). • Persistent wheezing and respiratory distress. • Prolonged or excessive pain or distress as defined by clinical observations such as: prostration, hunched posture, paralysis/paresis, distended abdomen, ulcerations, abscesses, seizures, and/or hemorrhages.

As for `CCCCCCCCC(O)CCCCCCC(=O)O` (racemic) [Sample 8-HHA, 8-hydroxy-palmitic acid], the “inhibition of growth on non-small cell lung cancer cell lines, in words” value in data set [1] is recorded as “remarkable inhibition of growth”. Also, the “effect on survival of SNU cell line” value in [2] is recorded as “no major effect”. Further, the “reduced the survival of PLC-5 cell line by” value in data set [3] was determined as 52%. The “reduced the survival of HOP92 cell lines by” value in [4] came out at 25%. Further, the “reduced the survival of Hep3B cell line by” value in data set [5] is 25%. For the same molecule, the “tolerability / clinical abnormalities” value in data set [6] (10 mg/kg and 20 mg/kg IV) is recorded as “did not demonstrate any clinical abnormalities”. The “mice that died shortly after being dosed” value in data set [6] (high dose 40 mg/kg IV, 4 animals per group) is “Two”. Moreover, the MTD at 8 days in data set [6] (mouse, in vivo, ICR female mice, single IV bolus, nanolipid formulation, read-out: maximum tolerated dose) is 20 mg/kg. Also, in [6] (single IV bolus), the “body weight at day 6 and 8” value is “did not vary from pre dose weight”. Also, in data set [7], the “suppressed growth of leukemia cell lines” value was 40-96%. In addition, the water solubility entry in data set [8] is given as “poorly water soluble”. Further, the “tumor volume decrease compared to the control group” value in data set [9] (T1 10 mg/Kg, day 4) is recorded as 44.5%; in data set [9] (T1 10 mg/Kg, day 9), 49.8%; in data set [9] (T1 10 mg/Kg, day 11), 72.3%; in data set [9] (T1 10 mg/Kg, day 16) it was 77.7%; in [9] (T1 10 mg/Kg, day 18) it was 78.4%; in data set [9] (T2 100 mg/Kg, day 4), 56.3%. Besides, the “tumor volume decrease compared to the control group” value amounted to 61.1% in data set [9] (T2 100 mg/Kg, day 9); 81.1% in data set [9] (T2 100 mg/Kg, day 11); 87.9% in data set [9] (T2 100 mg/Kg, day 16); 88.3% in data set [9] (T2 100 mg/Kg, day 18). For the same molecule, the “tumor growth inhibition, in words” value in data set [9] (both T1 (10 mg/Kg) and T2 (100 mg/Kg)) is reported as “significantly inhibited tumor growth in mice from day 4”.
